Source: ChEMBL document CHEMBL1201862, “PubChem BioAssay data set” (2004)
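1) Cells in 96-well plates. 2) Compound, 48 h, 5 concentrations. 3) Linear interpolation between surrounding doses. 4) Unreached endpoint = highest concentration. GI50 = concentration required for 50% inhibition of growth.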 Active and inactive are the calls of the source. Cut-off read from the data, not from the text of the source: active = GI50 up to about 1.1 µM and inactive = higher.

Columns and labels:
Assay in all cases: NCI-60 cell line screen, 48 h
IGROV-1 = test system: IGROV-1
OVCAR-4 = test system: OVCAR-4
HOP-92 = test system: HOP-92
UACC-62 = test system: UACC-62
HOP-62 = test system: HOP-62
CAKI-1 = test system: CAKI-1
U-251 = test system: U-251
MDA-N = test system: MDA-N
Hs-578T = test system: Hs-578T
UO-31 = test system: UO-31
COLO 205 = test system: COLO 205
MOLT-4 = test system: MOLT-4
NCI-H460 = test system: NCI-H460
UACC-257 = test system: UACC-257
KM12 = test system: KM12
RPMI-8226 = test system: RPMI-8226
DU-145 = test system: DU-145
PC-3 = test system: PC-3
MCF7 = test system: MCF7
RXF 393 = test system: RXF 393
OVCAR-5 = test system: OVCAR-5
HCT-15 = test system: HCT-15
OVCAR-3 = test system: OVCAR-3
786-0 = test system: 786-0
K562 = test system: K562
BT-549 = test system: BT-549
NCI-H23 = test system: NCI-H23
EKVX = test system: EKVX
SN12C = test system: SN12C
TK-10 = test system: TK-10
SW-620 = test system: SW-620
SK-OV-3 = test system: SK-OV-3
SF-295 = test system: SF-295
SF-268 = test system: SF-268
T47D = test system: T47D
SNB-19 = test system: SNB-19
HCC 2998 = test system: HCC 2998
A498 = test system: A498
ACHN = test system: ACHN
A549 = test system: A549
SK-MEL-28 = test system: SK-MEL-28
NCI-H522 = test system: NCI-H522
NCI/ADR-RES = test system: NCI/ADR-RES
OVCAR-8 = test system: OVCAR-8
MDA-MB-435 = test system: MDA-MB-435
M14 = test system: M14
SF-539 = test system: SF-539
LOX IMVI = test system: LOX IMVI
HT-29 = test system: HT-29
SK-MEL-5 = test system: SK-MEL-5
CCRF-CEM = test system: CCRF-CEM
NCI-H226 = test system: NCI-H226
SK-MEL-2 = test system: SK-MEL-2
HCT-116 = test system: HCT-116
MDA-MB-231 = test system: MDA-MB-231
SNB-75 = test system: SNB-75
HL-60 = test system: HL-60
Malme-3M = test system: Malme-3M

For `CC1=CC2C(O1)C1C(=O)C=CC(=O)C1=CC2[N+](=O)[O-]` (stereo unspecified), the GI50 (IGROV-1) was 17.9 µM (inactive), the GI50 (OVCAR-4) was 17.3 µM (inactive) and the GI50 (HOP-92) was 2.14 µM (inactive). The GI50 (UACC-62) was 18.6 µM (inactive), the GI50 (HOP-62) was 21 µM (inactive) and the GI50 (CAKI-1) was 5.01 µM (inactive). For the same molecule, the GI50 (U-251) was 18.5 µM (inactive), the GI50 (MDA-N) was 23.1 µM (inactive) and the GI50 (Hs-578T) was 18.1 µM (inactive). For the same molecule, the GI50 (UO-31) was 5.22 µM (inactive), the GI50 (COLO 205) was 5.73 µM (inactive) and the GI50 (MOLT-4) was 3.48 µM (inactive). The GI50 (NCI-H460) was 18.6 µM (inactive), the GI50 (UACC-257) was 16.9 µM (inactive) and the GI50 (KM12) was 24.3 µM (inactive). For the same molecule, the GI50 (RPMI-8226) was 9.33 µM (inactive), the GI50 (DU-145) was 25.4 µM (inactive) and the GI50 (PC-3) was 19.9 µM (inactive). For the same molecule, the GI50 (MCF7) was 6.75 µM (inactive), the GI50 (RXF 393) was 14.8 µM (inactive) and the GI50 (OVCAR-5) was 24.5 µM (inactive). The GI50 (HCT-15) was 19.1 µM, the GI50 (OVCAR-3) was 16 µM (inactive) and the GI50 (786-0) was 12.3 µM (inactive). The GI50 (K562) was 7.67 µM (inactive), the GI50 (BT-549) was 15.8 µM (inactive) and the GI50 (NCI-H23) was 19.9 µM (inactive). For the same molecule, the GI50 (EKVX) was 14.6 µM (inactive), the GI50 (SN12C) was 18.1 µM (inactive) and the GI50 (TK-10) was 16.1 µM (inactive). The GI50 (SW-620) was 3.61 µM (inactive), the GI50 (SK-OV-3) was > 100 µM (inactive) and the GI50 (SF-295) was 18.7 µM (inactive). For the same molecule, the GI50 (SF-268) was 15 µM (inactive), the GI50 (T47D) was 3.85 µM (inactive) and the GI50 (SNB-19) was 34.6 µM (inactive). For the same molecule, the GI50 (HCC 2998) was > 43.7 µM (inactive), the GI50 (A498) was 22.9 µM (inactive) and the GI50 (ACHN) was 5.3 µM (inactive). The GI50 (A549) was 19.4 µM (inactive), the GI50 (SK-MEL-28) was 27.4 µM (inactive) and the GI50 (NCI-H522) was 1.71 µM (inactive). The GI50 (NCI/ADR-RES) was 25.5 µM (inactive), the GI50 (OVCAR-8) was 22.5 µM (inactive) and the GI50 (MDA-MB-435) was 12.2 µM (inactive). The GI50 (M14) was 14 µM (inactive), the GI50 (SF-539) was 33.5 µM (inactive) and the GI50 (LOX IMVI) was 16.6 µM (inactive). For the same molecule, the GI50 (HT-29) was 16.5 µM (inactive), the GI50 (SK-MEL-5) was 17.5 µM (inactive) and the GI50 (CCRF-CEM) was 3.85 µM (inactive). For the same molecule, the GI50 (NCI-H226) was > 100 µM (inactive), the GI50 (SK-MEL-2) was 23.3 µM (inactive) and the GI50 (HCT-116) was 13.8 µM (inactive). The GI50 (MDA-MB-231) was 19.8 µM (inactive), the GI50 (SNB-75) was 26.7 µM (inactive) and the GI50 (HL-60) was 8.11 µM (inactive).
`CCCCCCC(=O)OC[n+]1cccc(-c2c(COC(=O)NC(C)C)c(COC(=O)NC(C)C)c3n2CCC3)c1` was tested, and the GI50 (IGROV-1) was > 41.8 µM (inactive), the GI50 (OVCAR-4) was 33.7 µM (inactive) and the GI50 (HOP-92) was 24.9 µM (inactive). The GI50 (UACC-62) was 20 µM (inactive), the GI50 (HOP-62) was 42.5 µM (inactive) and the GI50 (CAKI-1) was 11 µM (inactive). For the same molecule, the GI50 (U-251) was 29.4 µM (inactive), the GI50 (MDA-N) was > 95.3 µM (inactive) and the GI50 (Hs-578T) was > 57.4 µM (inactive). For the same molecule, the GI50 (UO-31) was 26.2 µM (inactive), the GI50 (COLO 205) was 51.4 µM (inactive) and the GI50 (MOLT-4) was 11.6 µM (inactive). For the same molecule, the GI50 (NCI-H460) was 14.5 µM (inactive), the GI50 (UACC-257) was 64.1 µM (inactive) and the GI50 (KM12) was > 100 µM (inactive). For the same molecule, the GI50 (RPMI-8226) was 32.1 µM (inactive), the GI50 (DU-145) was 35.9 µM (inactive) and the GI50 (PC-3) was > 56.8 µM (inactive). For the same molecule, the GI50 (MCF7) was 27.6 µM (inactive), the GI50 (RXF 393) was 20.4 µM (inactive) and the GI50 (OVCAR-5) was > 58.9 µM (inactive). The GI50 (HCT-15) was 42.6 µM, the GI50 (OVCAR-3) was 41.4 µM (inactive) and the GI50 (786-0) was 21.6 µM (inactive). For the same molecule, the GI50 (K562) was 31.6 µM (inactive), the GI50 (BT-549) was 37.8 µM (inactive) and the GI50 (NCI-H23) was 26.9 µM (inactive). The GI50 (EKVX) was > 100 µM (inactive), the GI50 (SN12C) was 31 µM (inactive) and the GI50 (TK-10) was 56.2 µM (inactive). The GI50 (SW-620) was 28.4 µM (inactive), the GI50 (Malme-3M) was 38.9 µM (inactive) and the GI50 (SK-OV-3) was 40.6 µM (inactive). The GI50 (SF-295) was > 62.2 µM (inactive), the GI50 (SF-268) was 20.4 µM (inactive) and the GI50 (T47D) was 61.8 µM (inactive). The GI50 (SNB-19) was 90.6 µM (inactive), the GI50 (HCC 2998) was > 100 µM (inactive) and the GI50 (A498) was 23 µM (inactive). For the same molecule, the GI50 (ACHN) was 21.4 µM (inactive), the GI50 (A549) was 60 µM (inactive) and the GI50 (SK-MEL-28) was > 100 µM (inactive). The GI50 (NCI-H522) was 22.6 µM (inactive), the GI50 (NCI/ADR-RES) was 32.4 µM (inactive) and the GI50 (OVCAR-8) was 34.4 µM (inactive). The GI50 (MDA-MB-435) was 70.8 µM (inactive), the GI50 (M14) was 39.2 µM (inactive) and the GI50 (SF-539) was 32.1 µM (inactive). For the same molecule, the GI50 (LOX IMVI) was 22 µM (inactive), the GI50 (HT-29) was 40.6 µM (inactive) and the GI50 (SK-MEL-5) was 32.4 µM (inactive). For the same molecule, the GI50 (CCRF-CEM) was 9.55 µM (inactive), the GI50 (NCI-H226) was 60.7 µM (inactive) and the GI50 (SK-MEL-2) was 26.7 µM (inactive). The GI50 (HCT-116) was 32.8 µM (inactive), the GI50 (MDA-MB-231) was 47.3 µM (inactive) and the GI50 (SNB-75) was 35.4 µM (inactive). For the same molecule, the GI50 (HL-60) was 8.57 µM (inactive).
In the case of `CCOC(=O)C1(C#N)C(=O)c2cc[n+](CC[n+]3ccc4c(c3)C(=O)C(C#N)(C(=O)OCC)C4=O)cc2C1=O` (stereo unspecified), the GI50 (IGROV-1) was > 100 µM (inactive), the GI50 (OVCAR-4) was > 100 µM (inactive) and the GI50 (HOP-92) was > 100 µM (inactive). The GI50 (UACC-62) was > 100 µM (inactive), the GI50 (CAKI-1) was > 100 µM (inactive) and the GI50 (U-251) was > 100 µM (inactive). For the same molecule, the GI50 (MDA-N) was 64.1 µM (inactive), the GI50 (Hs-578T) was > 100 µM (inactive) and the GI50 (UO-31) was > 100 µM (inactive). The GI50 (COLO 205) was > 10 µM (inactive), the GI50 (MOLT-4) was > 100 µM (inactive) and the GI50 (NCI-H460) was > 100 µM (inactive). The GI50 (UACC-257) was > 100 µM (inactive), the GI50 (KM12) was > 100 µM (inactive) and the GI50 (RPMI-8226) was > 100 µM (inactive). The GI50 (DU-145) was > 100 µM (inactive), the GI50 (PC-3) was > 100 µM (inactive) and the GI50 (MCF7) was > 100 µM (inactive). The GI50 (RXF 393) was > 100 µM (inactive), the GI50 (OVCAR-5) was > 100 µM (inactive) and the GI50 (HCT-15) was over 100 µM. The GI50 (OVCAR-3) was 25.4 µM (inactive), the GI50 (786-0) was > 100 µM (inactive) and the GI50 (K562) was 86.1 µM (inactive). The GI50 (BT-549) was > 100 µM (inactive), the GI50 (NCI-H23) was > 100 µM (inactive) and the GI50 (EKVX) was > 100 µM (inactive). The GI50 (SN12C) was > 100 µM (inactive), the GI50 (SW-620) was > 100 µM (inactive) and the GI50 (Malme-3M) was 60.4 µM (inactive). The GI50 (SK-OV-3) was > 100 µM (inactive), the GI50 (SF-295) was > 100 µM (inactive) and the GI50 (SF-268) was 96.8 µM (inactive). The GI50 (T47D) was 53.3 µM (inactive), the GI50 (SNB-19) was > 100 µM (inactive) and the GI50 (HCC 2998) was > 100 µM (inactive). The GI50 (A498) was > 100 µM (inactive), the GI50 (ACHN) was > 100 µM (inactive) and the GI50 (A549) was > 100 µM (inactive). The GI50 (SK-MEL-28) was > 100 µM (inactive), the GI50 (NCI-H522) was > 100 µM (inactive) and the GI50 (NCI/ADR-RES) was > 100 µM (inactive). The GI50 (OVCAR-8) was > 100 µM (inactive), the GI50 (MDA-MB-435) was > 100 µM (inactive) and the GI50 (M14) was > 100 µM (inactive). For the same molecule, the GI50 (SF-539) was > 100 µM (inactive), the GI50 (LOX IMVI) was 74.1 µM (inactive) and the GI50 (HT-29) was > 100 µM (inactive). For the same molecule, the GI50 (SK-MEL-5) was 18.4 µM (inactive), the GI50 (CCRF-CEM) was > 100 µM (inactive) and the GI50 (NCI-H226) was > 100 µM (inactive). For the same molecule, the GI50 (SK-MEL-2) was 36.1 µM (inactive), the GI50 (HCT-116) was > 100 µM (inactive) and the GI50 (MDA-MB-231) was 60.5 µM (inactive). The GI50 (SNB-75) was > 100 µM (inactive) and the GI50 (HL-60) was 83.4 µM (inactive).
